# Entries after “also recorded” stand apart in the source; their conditions may differ.
# How the values were obtained:
# [1] = tested on: sweet sensitive taste panel of five experts (trained flavourists); assay: Taste evaluation of mogroside V / 11-O-mogroside V solutions in 5% (w/v) sucrose and 0.03% (w/v) citric acid; assay type: in vivo, human; conditions: compared to mogroside V alone
# Text: Mogroside V and 11-O-mogroside V were isolated from extracts of Luo Han Guo using Agilent 1100 preparative HPLC system with a Phenomenex Luna C18 (2) column (5 μm, 210×21.4 mm), and combined to form solutions of various concentrations.
# These solutions were combined with a solution containing 5% (w/v) sucrose and 0.03% (w/v) citric acid to give test samples and evaluated by a sweet sensitive taste panel of five experts (trained flavourists).
# [2] = Sweetness relative to sucrose; assay type: in vivo
# Description: The term “sucrose equivalence” refers to the equivalence in sweetness of a composition containing at least one non-sucrose sweetener to a reference sucrose solution. […] Other non-sucrose sweeteners may then be tasted at a series of dilutions to determine the concentration of the non-sucrose sweetener that is as sweet (i.e. isosweet) to a given sucrose reference. The term “isosweet” refers to compositions that have equivalent sweetness. Typically, the sweetness of a given composition is measured with reference to a solution of sucrose. See “A Systematic Study of Concentration-Response Relationships of Sweeteners,” […]. Walters, […]. Booth, […]. Gibes, B. T. Carr, and L. M. Brands, in Sweeteners: Discovery, Molecular Design and Chemoreception, D. E. Walters, F. T. Orthoefer, and G. E. DuBois, Eds., American Chemical Society, Washington, D.C. (1991), pp 261-276.
smiles,measurement,setting,value
"C[C@H](CC[C@@H](O[C@@H]1O[C@H](CO[C@@H]2O[C@H](CO)[C@@H](O)[C@H](O)[C@H]2O)[C@@H](O)[C@H](O)[C@H]1O[C@@H]1O[C@H](CO)[C@@H](O)[C@H](O)[C@H]1O)C(C)(C)O)[C@H]1CC[C@@]2(C)[C@H]3CC=C4[C@@H](CC[C@H](O[C@@H]5O[C@H](CO[C@@H]6O[C@H](CO)[C@@H](O)[C@H](O)[C@H]6O)[C@@H](O)[C@H](O)[C@H]5O)C4(C)C)[C@]3(C)C(=O)C[C@]12C [11-O-mogroside V, 11-O-Mogroside V]",Effect of blending 11-O-mogroside V with mogroside V on sweet quality,[1],improves the sweet quality compared to mogroside V alone; also recorded: helped to reduce sweetness lingering (weaken later sweetness taste) and reduce astringent and bitter aftertastes compared to mogroside V alone
same,Sweetness relative to sucrose,[2]; Example 2 results,84 times sweeter than sucrose
same,Sweetness relative to sucrose,[2]; description,about 84 times the sweetness of sucrose

# Reference: US20200345049A1, “COMPOSITIONS” (Givaudan, S.A., priority 2017, published 2020)
